# Data reported in US20230136600A1, “Method and device for screening antigen epitope polypeptide” (priority 2020, published 2023).
# What was measured:
# [1] = tested on: novel coronavirus (live coronavirus), vero cells; test: In-vitro live virus neutralization experiment with serum of immunized mice (CPE method); format: in vivo, SARS-CoV-2; settings: Embodiment I: single peptide 100 μg + MF59 at Day 0, 14, 28, Balb/c mice, serum Day 35
# Balb/c mice = test: Polypeptide chip-based vaccine immunogenicity scoring system; format: in vivo; parameters: key to A2: whether the 95 percentile of the last sampling is increased compared with the end point: Y = rise; N = no rise
# [2] = Embodiment III, polypeptide-KLH
# [3] = Embodiment III, polypeptide-KLH, Mix1-10
# [4] = Embodiment III, polypeptide-KLH, total score = 5
# [5] = Embodiment III, polypeptide-KLH, value of the whole mix
# [6] = adjuvant AddaVax, 7 peptides co-immunized in mice
# [7] = adjuvant Adju-Phos, 7 peptides co-immunized in mice
# [8] = adjuvant Alhydrogel, 7 peptides co-immunized in mice
# [9] = adjuvant Imjet Alumn, 7 peptides co-immunized in mice
# [10] = adjuvant MA103A, 7 peptides co-immunized in mice
# [11] = adjuvant MA103B, 7 peptides co-immunized in mice
sequence,measurement,setting,value
MEVTPSGTWLTY (SARS-CoV-2) [SEQ ID NO:22],Neutralizing antibody positive rate (%),[1],20%
same,B1: D 0-D 14 95 percentile rise in the number of mice,Balb/c mice; [2],3
same,B2: D 0-D 21 95 percentile rise in the number of mice,Balb/c mice; [2],3
same,B3: D 14-D 21 95 percentile rise in the number of mice,Balb/c mice; [2],3
same,B4: D 21-D 28 95 percentile rise in the number of mice,Balb/c mice; [2],0
same,A1: difference between a highest median and a D 0 median (95 percentile),Balb/c mice; [3],0.07
same,A2: whether the 95 percentile of the last sampling is increased compared with the end point,Balb/c mice; [3],N
same,Total single peptide,"Balb/c mice; Embodiment III, polypeptide-KLH, A*3 + B*2 + C*1",10.7
same,A: 95 percentile grouping number score,Balb/c mice; [4],2
same,B: Mouse performance score,Balb/c mice; [4],2.1
same,C1: #A timing-sequence response peptide fragment set,Balb/c mice; [5],352
same,C2: #B vaccine specificity peptide fragment set,Balb/c mice; [5],541
same,C3: Intersection of A and B,Balb/c mice; [5],1
same,C4: Percentage of the intersection in set B,Balb/c mice; [5],0.185
same,C: Timing-sequence response and specificity score,Balb/c mice; [5],0.5
same,1) 95 percentile grouping number A,Balb/c mice; [6],4
same,1) 95 percentile grouping number A1,Balb/c mice; [6],0.05
same,2) Mouse performance B,Balb/c mice; [6],2.9
same,2) Mouse performance B1,Balb/c mice; [6],3
same,2) Mouse performance B2,Balb/c mice; [6],4
same,2) Mouse performance B3,Balb/c mice; [6],3
same,3) Timing-sequence response and specificity C,Balb/c mice; [6],0
same,3) Timing-sequence response and specificity C1,Balb/c mice; [6],237
same,3) Timing-sequence response and specificity C2,Balb/c mice; [6],1244
same,3) Timing-sequence response and specificity C3,Balb/c mice; [6],0
same,3) Timing-sequence response and specificity C4,Balb/c mice; [6],0.000
same,Total single peptide,Balb/c mice; [6],17.8
same,1) 95 percentile grouping number A,Balb/c mice; [7],5
same,1) 95 percentile grouping number A1,Balb/c mice; [7],0.075
same,2) Mouse performance B,Balb/c mice; [7],2.1
same,2) Mouse performance B1,Balb/c mice; [7],3
same,2) Mouse performance B2,Balb/c mice; [7],4
same,2) Mouse performance B3,Balb/c mice; [7],1
same,3) Timing-sequence response and specificity C,Balb/c mice; [7],0
same,3) Timing-sequence response and specificity C1,Balb/c mice; [7],203
same,3) Timing-sequence response and specificity C2,Balb/c mice; [7],1244
same,3) Timing-sequence response and specificity C3,Balb/c mice; [7],0
same,3) Timing-sequence response and specificity C4,Balb/c mice; [7],0.000
same,Total single peptide,Balb/c mice; [7],19.2
same,1) 95 percentile grouping number A,Balb/c mice; [8],2
same,1) 95 percentile grouping number A1,Balb/c mice; [8],0.03
same,2) Mouse performance B,Balb/c mice; [8],1.7
same,2) Mouse performance B1,Balb/c mice; [8],3
same,2) Mouse performance B2,Balb/c mice; [8],2
same,2) Mouse performance B3,Balb/c mice; [8],1
same,3) Timing-sequence response and specificity C,Balb/c mice; [8],1
same,3) Timing-sequence response and specificity C1,Balb/c mice; [8],123
same,3) Timing-sequence response and specificity C2,Balb/c mice; [8],1244
same,3) Timing-sequence response and specificity C3,Balb/c mice; [8],2
same,3) Timing-sequence response and specificity C4,Balb/c mice; [8],0.161
same,Total single peptide,Balb/c mice; [8],9.9
same,1) 95 percentile grouping number A,Balb/c mice; [9],5
same,1) 95 percentile grouping number A1,Balb/c mice; [9],0.145
same,2) Mouse performance B,Balb/c mice; [9],2.3
same,2) Mouse performance B1,Balb/c mice; [9],5
same,2) Mouse performance B2,Balb/c mice; [9],4
same,2) Mouse performance B3,Balb/c mice; [9],0
same,3) Timing-sequence response and specificity C,Balb/c mice; [9],1
same,3) Timing-sequence response and specificity C1,Balb/c mice; [9],100
same,3) Timing-sequence response and specificity C2,Balb/c mice; [9],1244
same,3) Timing-sequence response and specificity C3,Balb/c mice; [9],3
same,3) Timing-sequence response and specificity C4,Balb/c mice; [9],0.241
same,Total single peptide,Balb/c mice; [9],20.1
same,1) 95 percentile grouping number A,Balb/c mice; [10],5
same,1) 95 percentile grouping number A1,Balb/c mice; [10],0.11
same,2) Mouse performance B,Balb/c mice; [10],2.5
same,2) Mouse performance B1,Balb/c mice; [10],5
same,2) Mouse performance B2,Balb/c mice; [10],5
same,2) Mouse performance B3,Balb/c mice; [10],0
same,3) Timing-sequence response and specificity C,Balb/c mice; [10],1
same,3) Timing-sequence response and specificity C1,Balb/c mice; [10],260
same,3) Timing-sequence response and specificity C2,Balb/c mice; [10],1244
same,3) Timing-sequence response and specificity C3,Balb/c mice; [10],3
same,3) Timing-sequence response and specificity C4,Balb/c mice; [10],0.241
same,Total single peptide,Balb/c mice; [10],20.5
same,1) 95 percentile grouping number A,Balb/c mice; [11],4.5
same,1) 95 percentile grouping number A1,Balb/c mice; [11],0.07
same,2) Mouse performance B,Balb/c mice; [11],3
same,2) Mouse performance B1,Balb/c mice; [11],4
same,2) Mouse performance B2,Balb/c mice; [11],5
same,2) Mouse performance B3,Balb/c mice; [11],2
same,3) Timing-sequence response and specificity C,Balb/c mice; [11],0
same,3) Timing-sequence response and specificity C1,Balb/c mice; [11],153
same,3) Timing-sequence response and specificity C2,Balb/c mice; [11],1244
same,3) Timing-sequence response and specificity C3,Balb/c mice; [11],0
same,3) Timing-sequence response and specificity C4,Balb/c mice; [11],0.000
same,Total single peptide,Balb/c mice; [11],19.5
